The test system of assay [1] is Cyfip1+/− mice. The assay is described as follows: three-chamber test (sociability and social novelty) in Cyfip1+/− mice. The format is in vivo, mouse. The following applies: for social preference deficit (sociability index, stranger 1 vs object): acute diazepam i.p. 0.2 mg/ml at 1% of bodyweight, 30 min prior to test. The procedure: Sociability and social novelty were evaluated using the three-chamber test previously described (Crawley (2007), Brain Pathology 17(4), 448-459). Briefly, the set-up consisted of a rectangular non-transparent Plexiglas box divided into three compartments, separated by two partitions (each compartment: 30×19×21 cm). These partitions contained a small passage in the middle (8×7 cm; that can be sealed with small guillotine doors), which allowed the mouse to transition between adjacent compartments. During the acclimation phase, mice were allowed to explore the empty central compartment for 5 min. At the start of the test, both sliding doors were closed and each of the outer compartments were equipped with a wired cage (10 cm diameter, 20 cm high), one containing an object (50 ml Falcon Tube or a glue stick) and the other containing a mouse (i.e. stranger 1). Holding cages were used to avoid inter-male fighting but allow visual and olfactory contact between mice. During the sociability phase, the guillotine doors were removed and mice could freely explore the entire set-up for 10 min. It is expected from healthy mice that more interest is shown towards another mouse compared to an object. After 10 min, mice were placed into an empty housing cage, and the holding cage containing the object was replaced by a holding cage containing a novel mouse (i.e. stranger 2). During the next phase (social memory), the stranger 1 mouse has become familiar and it is expected that healthy mice show more interest towards the stranger 2 mouse compared to the stranger 1 mouse. The guillotine doors were removed and mice were allowed to explore the set-up for another 10 min. The location of the stranger 1 and stranger 2 mice was counterbalanced between animals and the box was cleaned with 70% EtOH solution after each animal. All stranger mice used were of the same sex as the tested mouse and had never been in contact with the test mice. Mice were recorded with a camera and were tracked with Ethovision software (Noldus, Wageningen, The Netherlands). Time spent in close proximity (<2 cm) to the holding cages was recorded. Preference index was calculated as: Time stranger 1/(Time stranger 1+Time object) and Timestranger 2/(Timestranger 1+Timestranger 2) for sociability and social memory/social novelty, respectively.
Diazepam, a GABA-A positive modulator, was purchased from Roche (Basel, Switzerland) (diazepam already dissolved in saline at a concentration of 5 mg/ml). Diazepam was further diluted in saline and adjusted to the dose of 0.2 mg/ml. Mice were first tested in the three-chamber test in control conditions. 72 h afterwards, all mice were administered intraperitoneally with diazepam at 1% of bodyweight 30 min prior to re-testing. […]

Assay [2] concerns WT mice. Nature of the assay: three-chamber test (sociability) in WT mice. The following applies: acute diazepam i.p. 0.2 mg/ml at 1% of bodyweight, 30 min prior to test. The format is in vivo, mouse. The procedure: Sociability and social novelty were evaluated using the three-chamber test previously described (Crawley (2007), Brain Pathology 17(4), 448-459). Briefly, the set-up consisted of a rectangular non-transparent Plexiglas box divided into three compartments, separated by two partitions (each compartment: 30×19×21 cm). These partitions contained a small passage in the middle (8×7 cm; that can be sealed with small guillotine doors), which allowed the mouse to transition between adjacent compartments. During the acclimation phase, mice were allowed to explore the empty central compartment for 5 min. At the start of the test, both sliding doors were closed and each of the outer compartments were equipped with a wired cage (10 cm diameter, 20 cm high), one containing an object (50 ml Falcon Tube or a glue stick) and the other containing a mouse (i.e. stranger 1). Holding cages were used to avoid inter-male fighting but allow visual and olfactory contact between mice. […] Mice were recorded with a camera and were tracked with Ethovision software (Noldus, Wageningen, The Netherlands). Time spent in close proximity (<2 cm) to the holding cages was recorded. Preference index was calculated as: Time stranger 1/(Time stranger 1+Time object) and Timestranger 2/(Timestranger 1+Timestranger 2) for sociability and social memory/social novelty, respectively. […]

Assay [3] relates to Cyfip^85.1/+ flies. The assay is described as follows: competition for food assay (total number of social events) in Cyfip haploinsufficient flies. The following applies: Cyfip^85.1/+ flies; Diazepam 50 μM in food, 1 day. In kind it is in vivo, Drosophila. As for the experimental part:
Experiments were performed with socially experienced, 3-7 days-old male flies. Groups of eight males from the same genotype were anesthetized 24 h prior to the assay and placed in vials with food. On the day of the assay, the males were transferred without anesthesia to an empty vial and were deprived of food for 90 minutes, after which they were exposed to a food droplet and given 2 minutes to acclimate to this disturbance. The flies were then observed simultaneously for an additional 2 minutes, and the total number of social events was scored. Monitored social events were i.e. approaches, lunges, tussles, wing threat and the initiation of courtship. Of note, one interaction involving two or more flies was counted as one social event in total (Zwarts (2011), PNAS 108, 17070-17075. The behavioral assays were conducted in a behavioral chamber (25° C., 60-70% humidity) between 8 a.m. and 11 a.m. Statistics were calculated using a one-way fixed effect ANOVA model, and Kruskal Wallis test in combination with Dunn's multiple comparison test.
Example 8. GABA augmentation fully normalizes the behavioral abnormalities of Cyfip^85.1/+ flies. GABA levels were augmented in Cyfip^85.1/+ flies in three distinct ways: flies were fed either GABA, DL-2,4-diaminobutyric acid (DABA) which is a GABA-transaminase inhibitor and/or a GABA reuptake inhibitor or the anticonvulsant valproic acid (VPA) which induces GABA release (Chateauvieux (2010), Journal of biomedicine & biotechnology 2010; Coghlan (2012), Neurosci Biobehav Rev 36, 2044-2055; Reynolds (2007), Current medicinal chemistry 14, 2799-2812). All compounds were purchased from Sigma-Aldrich and were used as described before (Kanellopoulos (2012), J Neurosci. 32(38):13111-24; Zwarts (2011), PNAS 108, 17070-17075). In brief, the drugs were dissolved as per the manufacturer's instructions and used at the following concentrations: GABA at 50 μM, DABA 100 μM, Valproic acid (VPA) at 1 mM and Diazepam at 50 μM. Compounds in solution were mixed with Formula 4-24® Instant Drosophila Medium (blue food) in water. Approximately 50-60 adult flies were placed in plastic vials containing 500 μl of each solution on top of an agar matrix and allowed to feed ad libitum before behaviour analysis. Vehicle treatment consisted of solvent added to blue food alone.
Example 16. Drug screening to identify compounds that ameliorate social behavior deficits in flies with Cyfip haploinsufficiency. Control (w1118) or CYFIP (Cyfip^85.1/+) flies were treated, i.e. fed, with various compounds from the Prestwick Chemical Library® as described in Examples 8 and 15. All compounds were used at a concentration of 50 μM. The total number of social interactions was analyzed in a competition for food assay at various time-points (1, 2 or 5 days) of treatment with the compound or vehicle controls as described in Example 2.

With `CN1C(=O)CN=C(c2ccccc2)c2cc(Cl)ccc21` [diazepam], the “increase in social preference after treatment (within-subject, control vs diazepam-treated)” value in assay [1] (acute diazepam i.p.) is “approximately 50%”. The “social preference deficit (sociability index, stranger 1 vs object)” value in assay [1] was “rescued the social preference deficit”; in assay [1] (listed as Diazepam), “restores deficits in social behavior”. The “preference for the novel mouse (social novelty index)” value in assay [1] (acute diazepam i.p., genotype difference not statistically significant) is given as “slightly increase”. Further, the “social preference (sociability index)” value in assay [2] is on record as “slight decrease in social preference”. In addition, in assay [3], the “social deficits (social events)” value was “restored the social deficits”.

For the origin of these results see patent US20240139205A1, “MODULATORS OF ARALAR FOR TREATING NEUROLOGICAL DISORDERS” (Universite de Lausanne, priority 2020, published 2024).
